Results: PubChem BioAssay (NCI)
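The compound was tested at five concentrations on cells cultured in 96-well plates, with a 48-hour exposure period. Abbreviation: GI50, concentration required for 50% inhibition of growth. TGI is the concentration that stops growth completely.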

Assays:
Assay in all cases: NCI-60 cell line screen, 48 h
SNB-75 CNS = system: SNB-75 CNS
OVCAR-5 ovarian = system: OVCAR-5 ovarian
BT-549 breast = system: BT-549 breast
OVCAR-3 ovarian = system: OVCAR-3 ovarian
SK-MEL-28 melanoma = system: SK-MEL-28 melanoma
LOX IMVI melanoma = system: LOX IMVI melanoma
NCI-H522 lung = system: NCI-H522 lung
MALME-3M melanoma = system: MALME-3M melanoma
SR leukemia = system: SR leukemia
UACC-257 melanoma = system: UACC-257 melanoma

Row | Structure (SMILES) | GI50 (SNB-75 CNS) [µM] | TGI (SNB-75 CNS) [µM] | GI50 (OVCAR-5 ovarian) [µM] | TGI (OVCAR-5 ovarian) [µM] | GI50 (BT-549 breast) [µM] | TGI (BT-549 breast) [µM] | GI50 (OVCAR-3 ovarian) [µM] | TGI (OVCAR-3 ovarian) [µM] | GI50 (SK-MEL-28 melanoma) [µM] | TGI (SK-MEL-28 melanoma) [µM] | GI50 (LOX IMVI melanoma) [µM] | TGI (LOX IMVI melanoma) [µM] | GI50 (NCI-H522 lung) [µM] | TGI (NCI-H522 lung) [µM] | GI50 (MALME-3M melanoma) [µM] | TGI (MALME-3M melanoma) [µM] | TGI (SR leukemia) [µM] | TGI (UACC-257 melanoma) [µM] | GI50 (UACC-257 melanoma) [µM] | GI50 (SR leukemia) [µM]
1 | Cn1c2ccccc2c2c3[nH][nH]c(=O)c3c3c4ccccc4[nH]c3c21 | 0.355 | 3.53 | 4.21 | > 100 | 1.59 | 5.3 | 1.94 | 7.8 | 3.74 | 12.9 | 1.09 | 6.62 | 1.56 | 10.4 | 5.24 | 29.6 | – | – | – | –
2 | Clc1ccc2nc(-c3ccccc3)nc(Cl)c2c1 | – | 59.5 | – | > 100 | – | – | – | > 100 | – | > 100 | – | – | – | – | – | 95.1 | > 100 | > 100 | – | –
3 | CCCCN(CCCC)CCC(O)c1cc2c(Cl)cc(Cl)cc2c2cc(C(F)(F)F)ccc12 (stereo not drawn) | – | 25.3 | – | 26 | – | – | – | 23.7 | – | 33.1 | – | 21.9 | – | 32.9 | – | 30 | 28.9 | 29.6 | – | –
4 | COC(=O)N/N=C(/CCC(=O)Nc1ccc(C)c(C)c1)CC(=O)C(C)(C)C | – | > 100 | – | > 100 | – | – | – | > 100 | – | > 100 | – | > 100 | – | > 100 | – | > 100 | – | > 100 | – | –
5 | CC1C[C@]2(C[C@@H](C)C(=O)O2)O[C@@H]2CC3(C)[C@@H]4CCC5C(C)(C)OC(=O)C[C@H]6OO[C@]4(CC[C@]3(C)C12)CC56O (stereo partly drawn) | – | > 100 | – | > 100 | – | – | – | > 100 | – | > 100 | – | > 100 | – | > 100 | – | > 100 | > 100 | > 100 | – | –
6 | CCOC(=O)C1=C(C)N(NC(N)=O)C(C)(O)C12CCOC2=O (stereo not drawn) | – | > 100 | – | > 100 | – | – | – | > 100 | – | > 100 | – | > 100 | – | > 100 | – | > 100 | > 100 | > 100 | – | –
7 | CC1=C(C(=O)Nc2ccc([N+](=O)[O-])cc2)C(c2ccc3c(c2)OCO3)C(C(=O)Nc2ccc([N+](=O)[O-])cc2)=C(C)N1 | – | 45.7 | – | > 100 | – | – | – | > 100 | – | > 100 | – | – | – | > 100 | – | > 100 | – | 50.7 | – | –
8 | Cc1cc2nc3cc(C)c(N)cc3[n+](-c3ccccc3)c2cc1N | 2.59 | > 100 | 46.3 | > 100 | 2.64 | 18.8 | 2.98 | > 95.7 | 15.2 | 79.3 | 4.78 | > 100 | 3.73 | > 41 | 3.98 | 51.1 | – | 12 | 1.85 | –
9 | COc1ccc(-c2cc(-c3cc(Cl)cc(Br)c3O)[nH]c(=O)n2)cc1 | – | 38.3 | – | – | – | – | – | 31.5 | – | 44.7 | – | 33.2 | – | 30 | – | 42.3 | 51.8 | 42.2 | – | –
10 | Cc1cccc(N2C(=O)C(=O)C(c3nc4ccccc4s3)/C(=N/NC(=S)NN)C2=O)c1C (stereo not drawn) | – | > 100 | – | > 100 | – | – | – | > 100 | – | > 100 | – | > 100 | – | > 100 | – | > 100 | – | > 100 | – | –
11 | CCN(CC)C(=O)N1CCN(C=S)CC1 | – | > 100 | – | > 100 | – | – | – | > 100 | – | > 100 | – | > 100 | – | > 100 | – | > 100 | > 100 | > 100 | – | –
12 | CC(/C=C/c1ccccc1)=N\NC(N)=S | – | – | – | > 100 | – | > 100 | – | 66.8 | – | > 100 | – | > 100 | – | – | – | > 100 | 65.3 | > 100 | – | –
13 | COC(=O)C(CBr)CBr | – | 31.4 | – | 31.2 | – | 6.58 | – | 7.09 | – | 9.36 | – | 7.75 | – | 4.76 | – | 4.93 | – | 12.5 | – | –
14 | NCCOc1ccccc1/C=C1\c2ccccc2-c2ccc([N+](=O)[O-])cc21 | 1.28 | 2.55 | 1.61 | 3.06 | 1.5 | 2.84 | 1.76 | 3.17 | 1.75 | 3.18 | 1.33 | 2.66 | 1.49 | 3.05 | 1.5 | 2.91 | – | 3.31 | 1.7 | –
15 | Cc1ccc(C2=Nc3c(N)ncnc3NC(c3ccc4c(c3)OCO4)C2)cc1 (stereo not drawn) | 4.55 | 37.2 | 32.1 | > 100 | – | – | 2.75 | 6.11 | 10.2 | 38 | 6.38 | 25 | 3.67 | 23.2 | 3.01 | 26.8 | 3.85 | > 100 | 40 | 0.249
16 | O=C1Nc2ccccc2/C1=C\c1nc(C2CCN(S(=O)(=O)c3ccc(F)cc3)CC2)n2ccccc12 | – | – | 5.16 | > 100 | 1.85 | 8.48 | 2.72 | 11.1 | > 100 | > 100 | 2.58 | > 100 | 1.94 | 12 | – | – | > 100 | – | – | > 100
17 | CC1(C)C=N[N+]2(C)C3C=CC(CC3)C12 (stereo not drawn) | – | > 100 | – | > 100 | – | – | – | > 100 | – | > 100 | – | > 100 | – | > 100 | – | > 100 | > 100 | > 100 | – | –
18 | C=CC1(NS(=O)(=O)c2ccc(C)cc2)CCC(C(C)(C)C)CC1 (stereo not drawn) | – | 54.1 | – | – | – | – | – | > 100 | – | > 100 | – | – | – | > 100 | – | > 100 | > 100 | > 100 | – | –
19 | O=[N+]([O-])c1ccc(/C=C/c2csnn2)cc1 | – | – | – | > 100 | – | – | – | > 100 | – | > 100 | – | > 100 | – | > 100 | – | > 100 | – | > 100 | – | –
